Measured values taken from patent US6403788B1, “Non-genotoxic metalloporphyrins as synthetic catalytic scavengers of reactive oxygen species” (Eukarion, Inc., priority 2000, dated 2002).

How the values were obtained:
[1] = Catalase turnover assay, total hydrogen peroxide consumed before inactivation; type: biochemical; conditions: to completion, 15.8 μM compound, 1582 μM hydrogen peroxide, 5 mM Na phosphate pH 7.4
Procedure: (§1) Catalase activity was measured by incubating the sample compound with hydrogen peroxide and determining the amount of hydrogen peroxide remaining after a period of time using a colorimetric peroxidase-coupled assay method. 10 μM sample compound and 100 μM hydrogen peroxide in 40 mM sodium phosphate pH 7.4 were incubated together at ambient temperature in a multi-well plate. After the desired reaction period had elapsed, 20 μl of peroxidase/ABTS reagent was added (peroxidase/ABTS reagent contained 100 μl of 50 mM Na phosphate, pH 7.4, 1 mg horseradish peroxidase (1310 U/mg) and […]). After five minutes, absorbance at 750 nm was determined. The amount of hydrogen peroxide remaining was calculated based on a standard curve. To compare rates of catalase reaction, the amount of hydrogen peroxide consumed at 20 minutes was determined (See table III). It was also of interest to determine the total number of turnovers completed by the compound before inactivation by hydrogen peroxide. This was assayed under similar conditions, except that 15.8 μM compound was combined with 1582 μM hydrogen peroxide in 5 mM Na phosphate, pH 7.4. Reactions were allowed to proceed to completion and then the amount of hydrogen peroxide remaining was determined as described above. Results showing […] in the turnover assay (nmoles hydrogen peroxide per nmole compound) are also shown in Table III.

[2] = Superoxide dismutase activity, xanthine-xanthine oxidase / cytochrome C; type: biochemical; conditions: reciprocal of IC50; xanthine 60 μM, xanthine oxidase 0.009 units/ml, cytochrome C 27.8 μM
Procedure: Superoxide Dismutase Activity was measured by incubating the compound with a superoxide generating system (Xanthine, 60 μM-Xanthine Oxidase, 0.009 units/ml) and a detector molecule (Cytochrome C, 27.8 μM). Upon reacting with a molecule of superoxide, Cytochrome C undergoes a spectrum-shift which can be detected as an increase in absorbance at 550 nm. In this assay procedure, the reactant concentrations were adjusted to give a reaction rate close to 0.1 AU/min. at 2-3 min. after the reaction began. Addition of compounds with Superoxide Dismutase activity reduce the rate of absorbance change. Compounds were assayed at several concentrations (typically at 0, 2, 4, and 8 μM) and the resulting rates were graphed and fitted to a linear regression formula. The linear regression formula was then solved to determine the concentration of compound required to reduce the reaction rate to 50% of the rate without compound present (IC50).

[3] = Peroxidase activity, ABTS oxidation; type: biochemical; conditions: 10 μM compound, 200 μM hydrogen peroxide, 500 μM ABTS, pH 8.1, 740 nm
Procedure: Peroxidase activity was measured by incubating 10 μM compound, 200 μM hydrogen peroxide and 500 μM ABTS in 50 mM sodium phosphate, pH 8.1. The rate of ABTS oxidation was monitored at 740 nm and initial rates (change in absorbance per min.) determined.

[4] = Catalase activity, hydrogen peroxide consumed at 20 minutes; type: biochemical; conditions: over 20 minutes; 10 μM compound, 100 μM hydrogen peroxide, 40 mM sodium phosphate pH 7.4
Procedure: as §1

[5] = tested on: ΦX 174 DNA Plasmid (Form I); assay: Cleavage of ΦX 174 DNA plasmid (form I), activation with ascorbate in the presence of air; type: biochemical, phage ΦX 174; conditions: for S (single-strand breaks per DNA molecule) / form % I / form % II / form % III: DNA 3.5 nM
From the text: (§2) The DNA cleavage activity was quantified in terms of number of single-strand breaks per DNA molecule according to the equation […], Io=% form I (supercoiled DNA) in the DNA control, and I=% form I in the experiment (see Bernadou et al, Biochemistry, 28: 7268-7275, (1989)). This assay is very sensitive and is able to detect very low levels of DNA activity. S values less than S=1.0 are indicative of very low DNA cleavage activity when the compounds are at a concentration of equal to or less than 1000 nM and KHSO5 is present at a concentration of equal to or less than 100 μM.
(§3) ΦX 174 DNA digestion conditions for standard experiments were as follows: commercially available DNA was diluted to 50 μg/mL in phosphate buffer (10 mM, pH 7.5). The reaction involved 5 μL of ΦX 174 DNA (50 μg/mL, 74.8 μM in base pairs), 5 μL of 40 mM phosphate buffer, pH 7.5 with 400 mM NaCl, 5 μL of metalloporphyrin in double-distilled water or 5 μL of iron-bleomycin complex in double-distilled water, and 5 μL of KHSO5 or 5 μL of H2O2 or 5 μL of ascorbate in double-distilled water. Preincubation of DNA and metalloporphyrins or iron-bleomycin complex was performed for about 15 min. The digestion time in the presence of KHSO5 was 10 min, of H2O2 was 30 min and of ascorbate was 30 min at 20° C. DNA cleavage was monitored by agarose gel electrophoresis. Reactions with KHSO5 were first quenched by 2 μL of 100 mM Hepes buffer, pH 8. In all cases, reactions were quenched by 5 μL of a stopping reagent. The stopping reagent consisted of 250 mM Hepes buffer, pH 7.4, containing 75% glycerol and 0.05% bromophenol blue. Reaction mixtures were then run in 0.8% agarose slab horizontal gel containing ethidium bromide […], at constant current (25 mA for 15h), in 89 mM Tris-borate buffer and 2.5 mM EDTA pH 8.3. Bands were located by WV light (254 nm), photographed, and quantitated by microdensitometry. The correction coefficient 1.47±0.30 was used for decreased stainability of form I DNA vs form II DNA and form III DNA.

[6] = tested on: ΦX 174 DNA Plasmid (Form I); assay: Cleavage of ΦX 174 DNA plasmid (form I), activation with H2O2; type: biochemical, phage ΦX 174; conditions: DNA 3.5 nM, compound 1 μM, H2O2 1 mM
From the text: as §2, §3

[7] = tested on: ΦX 174 DNA Plasmid (Form I); assay: Cleavage of ΦX 174 DNA plasmid (form I), compound alone or activated with KHSO5; type: biochemical, phage ΦX 174
From the text: as §2, §3

[8] = DNA 3.5 nM, compound 1 μM, KHSO5 100 μM
[9] = compound 10 nM, without ascorbate (Table II)

For CC(=O)[O-].CC(=O)[O-].CC(=O)[O-].CC(=O)[O-].CC(=O)[O-].CC[N+](C)(CC)CCNS(=O)(=O)c1ccc(-c2c3nc(c(-c4ccc(S(=O)(=O)NCC[N+](C)(CC)CC)cc4)c4ccc([n-]4)c(-c4ccc(S(=O)(=O)NCC[N+](C)(CC)CC)cc4)c4nc(c(-c5ccc(S(=O)(=O)NCC[N+](C)(CC)CC)cc5)c5ccc2[n-]5)C=C4)C=C3)cc1.O.O.[Mn+3] [Structural Formula VI, meso-tetrakis[4-(N-(2-(N,N,N-diethylmethylammonio)ethyl)aminosulfonyl)phenyl]porphyrinato diaqua-manganese (III) pentaacetate], the “CATALASE** H2O2 Consumption” value [1] was 42 nmole H2O2/nmole Structural Formula compound, the “Cyt C SOD 1/(IC50, μM)” value [2] was 0.041 µM⁻¹ and the “PEROXIDASE Initial Rate” value [3] was 0.0011 change in absorbance per min. For the same compound, the “CATALASE* Rate at 20 mins.” value [4] was 2.4 nmole H2O2/nmole Structural Formula compound.
With CC[NH+](CC)CCNS(=O)(=O)c1ccc(-c2c3nc(c(-c4ccc(S(=O)(=O)NCC[NH+](CC)CC)cc4)c4ccc([n-]4)c(-c4ccc(S(=O)(=O)NCC[NH+](CC)CC)cc4)c4nc(c(-c5ccc(S(=O)(=O)NCC[NH+](CC)CC)cc5)c5ccc2[n-]5)C=C4)C=C3)cc1.O.O.[Cl-].[Cl-].[Cl-].[Cl-].[Cl-].[Fe+3] [Structural Formula III, meso-tetrakis[4-(N-(2-(N,N-diethylammonio)ethyl)aminosulfonyl)phenyl]porphyrinato diaqua-iron (III) pentachloride] the “CATALASE** H2O2 Consumption” value [1] was 4.7 nmole H2O2/nmole Structural Formula compound, the “Cyt C SOD 1/(IC50, μM)” value [2] was 0.045 µM⁻¹ and the “PEROXIDASE Initial Rate” value [3] was 0.0363 change in absorbance per min. For the same compound, the “CATALASE* Rate at 20 mins.” value [4] was 0.3 nmole H2O2/nmole Structural Formula compound.
With O=C(O)c1ccc(-c2c3nc(c(-c4ccc(C(=O)O)cc4)c4ccc([n-]4)c(-c4ccc(C(=O)O)cc4)c4nc(c(-c5ccc(C(=O)O)cc5)c5ccc2[n-]5)C=C4)C=C3)cc1.[Mn+3] [MnTBAP, Mn(III) tetrakis (4-benzoic acid) porphyrin, reference compound] the “CATALASE** H2O2 Consumption” value [1] was 38.5 nmole H2O2/nmole Structural Formula compound, the “Cyt C SOD 1/(IC50, μM)” value [2] was 0.015 µM⁻¹ and the “PEROXIDASE Initial Rate” value [3] was 0.0304 change in absorbance per min. The “CATALASE* Rate at 20 mins.” value [4] was 0.4 nmole H2O2/nmole Structural Formula compound.
With CC(=O)[O-].CC(=O)[O-].CC(=O)[O-].CC(=O)[O-].CC(=O)[O-].CC[N+](C)(CC)CCNS(=O)(=O)c1c(C)cc(C)c(-c2c3nc(c(-c4c(C)cc(C)c(S(=O)(=O)NCC[N+](C)(CC)CC)c4C)c4ccc([n-]4)c(-c4c(C)cc(C)c(S(=O)(=O)NCC[N+](C)(CC)CC)c4C)c4nc(c(-c5c(C)cc(C)c(S(=O)(=O)NCC[N+](C)(CC)CC)c5C)c5ccc2[n-]5)C=C4)C=C3)c1C.O.O.[Mn+3] [Structural Formula VII, meso-tetrakis[3-(N-(2-(N,N,N-diethylmethylammonio)ethyl)aminosulfonyl)-2,4,6-trimethylphenyl]porphyrinato diaqua-manganese (III) pentaacetate] the “CATALASE** H2O2 Consumption” value [1] was 166.6 nmole H2O2/nmole Structural Formula compound, the “Cyt C SOD 1/(IC50, μM)” value [2] was 0.013 µM⁻¹ and the “PEROXIDASE Initial Rate” value [3] was 0.0025 change in absorbance per min. The “CATALASE* Rate at 20 mins.” value [4] was 1.3 nmole H2O2/nmole Structural Formula compound.
For CC(=O)[O-].CC(=O)[O-].CC(=O)[O-].CC(=O)[O-].CC(=O)[O-].CC[N+](C)(CC)CCNS(=O)(=O)c1c(C)cc(C)c(C2=C3C=CC4=[N+]3[Fe-]35[n]6c2ccc6C(c2c(C)cc(C)c(S(=O)(=O)NCC[N+](C)(CC)CC)c2C)=C2C=CC(=[N+]23)C(c2c(C)cc(C)c(S(=O)(=O)NCC[N+](C)(CC)CC)c2C)=c2ccc([n]25)=C4c2c(C)cc(C)c(S(=O)(=O)NCC[N+](C)(CC)CC)c2C)c1C [Structural Formula VIII, meso-tetrakis[3-(N-(2-(N,N,N-diethylmethylammonio)ethyl)aminosulfonyl)-2,4,6-trimethylphenyl]porphyrinato diaqua-iron(III) pentaacetate], the “S (single-strand breaks per DNA molecule)” value ([5]; compound 1 μM, Asc. 1 mM) was 1.61 SSBs, the “form % I” value ([5]; compound 1 μM, Asc. 1 mM) was 43% and the “form % II” value ([5]; compound 1 μM, Asc. 1 mM) was 57%. The “form % III” value ([5]; compound 1 μM, Asc. 1 mM) was 0%, the “S (single-strand breaks per DNA molecule)” value [6] was 0.13 SSBs and the “form % I” value [6] was 86%. The “form % II” value [6] was 14%, the “form % III” value [6] was 0% and the “S (single-strand breaks per DNA molecule)” value [7, 8] was 0.03 SSBs. For the same compound, the “form % I” value [7, 8] was 90%, the “form % II” value [7, 8] was 10% and the “form % III” value [7, 8] was 0%. For the same compound, the “DNA cleavage activity in oxidative medium” value ([7]; oxidative medium (KHSO5)) was “do not exhibit any significant DNA cleavage activity”.
With CC[NH+](CC)CCNS(=O)(=O)c1ccc(C2=C3C=CC4=[N+]3[Mn-]35[n]6c2ccc6C(c2ccc(S(=O)(=O)NCC[NH+](CC)CC)cc2)=C2C=CC(=[N+]23)C(c2ccc(S(=O)(=O)NCC[NH+](CC)CC)cc2)=c2ccc([n]25)=C4c2ccc(S(=O)(=O)NCC[NH+](CC)CC)cc2)cc1.[Cl-].[Cl-].[Cl-].[Cl-].[Cl-] [Structural Formula II, meso-tetrakis[4-(N-(2-(N,N-diethylammonio)ethyl)aminosulfonyl)phenyl]porphyrinato diaqua-manganese (III) pentachloride] the “CATALASE** H2O2 Consumption” value [1] was 42.4 nmole H2O2/nmole Structural Formula compound, the “Cyt C SOD 1/(IC50, μM)” value [2] was 0.034 µM⁻¹ and the “PEROXIDASE Initial Rate” value [3] was 0.0151 change in absorbance per min. The “CATALASE* Rate at 20 mins.” value [4] was 1.6 nmole H2O2/nmole Structural Formula compound.
With Bleomycin [reference compound] the “DNA cleavage” value ([5]; 1 μM concentration, ascorbate) was “all DNA is cleaved in small fragments”, the “S (single-strand breaks per DNA molecule)” value ([5]; compound 10 nM, Asc. 1 mM) was 7.79 SSBs and the “form % I” value ([5]; compound 10 nM, Asc. 1 mM) was 7%. The “form % II” value ([5]; compound 10 nM, Asc. 1 mM) was 71%, the “form % III” value ([5]; compound 10 nM, Asc. 1 mM) was 22% and the “S (single-strand breaks per DNA molecule)” value [5, 9] was 0.01 SSBs. The “form % I” value [5, 9] was 94%, the “form % II” value [5, 9] was 6% and the “form % III” value [5, 9] was 0%. The “times more active in DNA cleavage than Structural Formula V” value ([5]; same concentration (10 nM), ascorbate 1 mM, from experiments 2, 3, 7 and 8) was 768 times.
